Measurements taken from ChEMBL document CHEMBL5357004 (J Nat Prod, 2024).
Active and inactive are the calls of the source. No cut-off for these calls is given here.

Legend:
Adipocyte [1] = test: Downregulation of C/EBPbeta protein expression level in mouse Adipocyte by Western blot analysis; format: functional, cell-based
Adipocyte [2] = test: Potentiation of CL-316243-stimulated mouse Brown adipocyte activation assessed as increase in CPT1a mRNA expression at 4 uM pretreated with compound for 9 hr followed by CL-316243 induction and measured after 8 hrs by qRT-PCR analysis; format: functional, cell-based; settings: time 17.0 hrs
Adipocyte [3] = test: Potentiation of CL-316243-stimulated mouse Brown adipocyte activation assessed as increase in ELOVL3 mRNA expression at 4 uM pretreated with compound for 9 hr followed by CL-316243 induction and measured after 8 hrs by qRT-PCR analysis; format: functional, cell-based; settings: time 17.0 hrs
Adipocyte [4] = test: Potentiation of CL-316243-stimulated mouse Brown adipocyte activation assessed as increase in FGF21 mRNA expression at 4 uM pretreated with compound for 9 hr followed by CL-316243 induction and measured after 8 hrs by qRT-PCR analysis; format: functional, cell-based; settings: time 17.0 hrs
[5] = Effect on CEBPA mRNA level in mouse Adipocyte by qRT-PCR analysis; format: functional
[6] = Effect on Pparg2 mRNA level in mouse Adipocyte by qRT-PCR analysis; format: functional
[7] = Effect on CEBPB mRNA level in mouse Adipocyte by qRT-PCR analysis; format: functional
Adipocyte [8] = test: Potentiation of CL-316243-stimulated mouse Brown adipocyte activation assessed as increase in CTP1B mRNA expression at 4 uM pretreated with compound for 9 hr followed by CL-316243 induction and measured after 8 hrs by qRT-PCR analysis; format: functional, cell-based; settings: time 17.0 hrs
Adipocyte [9] = test: Potentiation of CL-316243-stimulated mouse Brown adipocyte activation assessed as increase in CPT2 mRNA expression at 4 uM pretreated with compound for 9 hr followed by CL-316243 induction and measured after 8 hrs by qRT-PCR analysis; format: functional, cell-based; settings: time 17.0 hrs
Adipocyte [10] = test: Downregulation of C/EBPalpha protein expression level in mouse Adipocyte by Western blot analysis; format: functional, cell-based
[11] = Cytotoxicity against C57BL6/J mouse brown Preadipocyte assessed as decrease in cell viability at 4 uM measured for 24 hrs by trypan blue staining based hemocytometer analysis; format: toxicity
[12] = Downregulation of C/EBPdelta protein expression level in mouse Adipocyte by Western blot analysis; format: functional
Adipocyte [13] = test: Potentiation of CL-316243-stimulated mouse Brown adipocyte activation assessed as increase in CIDEA mRNA expression at 4 uM pretreated with compound for 9 hr followed by CL-316243 induction and measured after 8 hrs by qRT-PCR analysis; format: functional, cell-based; settings: time 17.0 hrs
[14] = Effect on CD36 mRNA level in mouse Adipocyte by qRT-PCR analysis; format: functional
[15] = Cytotoxicity against C57BL6/J mouse brown Preadipocyte assessed as decrease in cell viability > 8 uM measured for 24 hrs by trypan blue staining based hemocytometer analysis; format: toxicity
Adipocyte [16] = test: Effect on C/EBPdelta mRNA level in mouse brown Adipocyte by qRT-PCR analysis; format: functional, cell-based
[17] = Effect on Pparg1 mRNA level in mouse Adipocyte by qRT-PCR analysis; format: functional
Adipocyte [18] = test: Potentiation of CL-316243-stimulated mouse Brown adipocyte activation assessed as increase in PPARA mRNA expression at 4 uM pretreated with compound for 9 hr followed by CL-316243 induction and measured after 8 hrs by qRT-PCR analysis; format: functional, cell-based; settings: time 17.0 hrs
Adipocyte [19] = test: Downregulation of C/EBPdelta protein expression level in mouse brown Adipocyte by Western blot analysis; format: functional, cell-based
Adipocyte [20] = test: Potentiation of CL-316243-stimulated mouse Brown adipocyte activation assessed as increase in Ucp1 expression at 4 uM pretreated with compound for 9 hr followed by CL-316243 induction and measured after 8 hrs by qRT-PCR analysis; format: functional, cell-based; settings: time 17.0 hrs
[21] = Inhibition of adipogenic differentiation in C57BL/6J mouse brown Preadipocyte assessed as reduction in neutral lipid content at 4 uM by Oil Red O staining based light microscopy; format: functional
Adipocyte [22] = test: Potentiation of CL-316243-stimulated mouse Brown adipocyte activation assessed as increase in ELVOL6 mRNA expression at 4 uM pretreated with compound for 9 hr followed by CL-316243 induction and measured after 8 hrs by qRT-PCR analysis; format: functional, cell-based; settings: time 17.0 hrs

## COc1c(C)c(O)c2c(=O)c(OC)c(-c3ccc(O)cc3)oc2c1OC
Adipocyte [1]
  Activity: inactive
Adipocyte [2]
  Activity: inactive
Adipocyte [3]
  Activity: inactive
Adipocyte [4]
  Activity: inactive
[5]
  Activity: 50.3%
[6]
  Activity: 50.3%
[7]
  Activity: 50.3%
Adipocyte [8]
  Activity: inactive
Adipocyte [9]
  Activity: inactive
Adipocyte [10]
  Activity: inactive
[11]
  Activity: Non-Toxic
[12]
  Activity: 31.93%
Adipocyte [13]
  Activity: inactive
[14]
  Activity: 24.18%
[15]
  Activity: Non-Toxic
Adipocyte [16]
  Activity: Active
[17]
  Activity: 50.3%
Adipocyte [18]
  Activity: inactive
Adipocyte [19]
  Activity: Active
Adipocyte [20]
  Activity: inactive
[21]
  inhibition at 4 µM: 54.8%
Adipocyte [22]
  Activity: inactive
